Results taken from patent US20030068385A1, “Accelerated action fatty acid (AAFA) promotes health of normal tissues and minimizes the toxic side effects of chemotherapy” (priority 2001, published 2003).
Structures can show the parent of a compound that is named as a salt. Each block holds one molecule with its values, some of them ahead of it.

Columns and labels:
[1] = Blood counts: WBC, RBC, hematocrit (Example 1); format: in vivo; conditions: Swiss mice treated with CPT-11; AAFA prior to and during CPT-11
Method: (§1) Mice were killed 24 hours after the last CPT-11 treatment. At necropsy, mice were weighed, anesthesized and blood was drawn via cardiac puncture. Peripheral blood was placed in an EDTA-containing tube and sent to Laboratory Animal Resources for complete blood counts. The liver, spleen, testes and kidneys were removed, weighed, then part of each organ was fixed in Omnifix® and a part was quick frozen in liquid nitrogen. The brain was removed and frozen in liquid nitrogen. The colon was resected, split open longitudinally and placed serosal side down on a card. Feces were removed from the colon, placed in a tared pan and weighed, then placed in a 100° C. vacuum oven for drying to constant weight. The colon and a section of duodenum were fixed in Omnifix®. The fixed colon and duodenum were oriented in cassettes then processed to paraffin blocks. Paraffin sections were cut 4 μm thick, histological slides of the colon and duodenum were prepared and stained with H & E or periodic acid-Schiff stain.

[2] = Fecal water content (Example 1); format: in vivo; conditions: Swiss mice treated with CPT-11 60 mg/kg IV; compared with mice not treated with CPT-11; not significant by ANOVA
Method: as §1
The initial wet weight and final constant weight of the dried feces was used to calculate the % of water in the feces of each mouse as an assay of intestinal function. […] Thus, the treatment helped return the values closer to control (no CPT-11 treatment) group values.

[3] = Liver weight as percent of body weight (Example 1); format: in vivo; conditions: Swiss mice treated with CPT-11; compared with mice not treated with CPT-11
Method: as §1
The weight of the liver was expressed as a percent of body weight. […] Thus, the treatment returned the values to control (no CPT-11 treatment) group values.

[4] = system: peripheral blood erythrocytes; test: Micronuclei and polychromataphilic erythrocytes in peripheral blood; format: in vivo; conditions: Swiss mice treated with CPT-11; compared with mice that did not receive CPT-11
Method: After completion of blood counts, a thin smear of peripheral blood was made on a microscope slide, the smear was air-dried and was then stained for 5 minutes with 0.01 mg/ml acridine orange in phosphate buffered saline (pH 7.0). Micronuclei and polychomataphilic erythrocytes (PCE) were identified on the acridine orange stained smears of peripheral blood. Using fluorescent microscopy and a 100X oil objective, the mature erythrocytes, lacking either DNA or RNA are green, the RNA containing PCE are reddish and the DNA containing micronuclei are bright yellow. Fields containing a single layer of erythrocytes were identified. At least 8 standard fields (300, 400 or 500 cells) were identified on each slide and the number or micronuclei or PCEs were counted and recorded.

[5] = Body weight gain during CPT-11 treatment on AAFA diets (Example 1); format: in vivo; conditions: male Swiss mice; 0-3% AAFA diets; CPT-11 60 mg/kg IV once each four days for 2 weeks
Method: 40 male Swiss mice, 6 weeks old, were obtained and earmarked for unique identification. Mice were housed 5/cage in Laboratory Animal Resources facilities. After 24 hours acclimation, mice were weighed and the food was changed to one of four defined diets. The AIN-76 based, 10% total fat diets contained: 0% AAFA+10% corn oil, 1% AAFA+9% corn oil, 2% AAFA+8% corn oil or 3% AAFA+7% corn oil. Two cages (10 mice) were designated to consume each diet. All mice were weighed three times weekly throughout the experiment.
Mice consumed the diet for 2 weeks then treatment with CPT-11 commenced for half of the mice (1 cage of 5 mice) on each diet. CPT-11 was administered at 60 mg/kg body weight, IV in a lateral tail vein, once each four days for 2 weeks. Control mice received an equivalent volume of the CPT-11 vehicle.

[6] = system: duodenum crypts; test: Apoptotic figures in the duodenum (Example 1); format: in vivo; conditions: Swiss mice, CPT-11 60 mg/kg IV; two way ANOVA
Method: as §1
The number of apoptotic cells found in 10 complete, midaxially sectioned duodenum crypts was counted as an indication of intestinal damage. […] Thus, the treatment helped return the values closer to control (no CPT-11 treatment) group values.

[7] = Coat quality (Example 1); format: in vivo; conditions: Swiss mice treated with CPT-11; compared with normal control group
Excerpt: The group of mice that consumed the ‘normal’ diet containing 10% corn oil and 0% AAFA that were not treated with CPT-11 (normal control group) was compared to the groups of mice treated with CPT-11 that consumed each diet. […] Thus, the treatment helped return the animal grooming behavior closer to the normal untreated control group without CPT-11. This generally reflects that the animals were “feeling better”.

[8] = cited from earlier work
[9] = system: A549 human lung cancer xenografts; test: Growth rate of A549 xenografts in nude mice (Example 3); format: in vivo
Method: A549 human lung cancer cells (American Type Culture Collection, Rockville, Md.) were cultured for injection in nude mice. The culture medium was an enriched L15:SMEM base media supplemented with other factors as described previously.
Twenty five male nude mice were allowed to acclimate for one week then were inoculated with tumor cells. The mice were housed under aseptic conditions (positive air pressure in a designated nude mouse room, cages, bedding, water and food were sterilized, cages had microisolator tops) in a temperature (24° C.) and light controlled (12 h light per day) room. All mouse handling was carried out under a laminar flow hood. Our Institutional Animal Care and Use Committee approved all animal use and handling before commencing the experiment. The animal care facilities are accredited by the American Association for the Accreditation of Laboratory Animal Care. Experimental Design-Cultured A549 cells were harvested, rinsed then suspended in serum-free L15:SMEM culture medium. Cells in suspension were counted using a hemocytometer and the cell count was adjusted to […]. The suspension was kept well mixed during the time of injection. […]
Tumor lengths and widths and body weights were measured three times weekly. […] Tumor sizes were calculated using the formula for the volume of a prolate spheroid, […]

[10] = patients or other mammals treated with CPT-11

hematocrit [1]: significantly decreased | red blood cell count [1]: significantly decreased | white blood cell count [1]: significantly decreased | mean fecal water content (% of water in the feces) [2]: higher | liver weight as percent of body weight [3]: significantly larger | coat quality [7]: scruffy
Molecule: CCc1c2c(nc3ccc(OC(=O)N4CCC(N5CCCCC5)CC4)cc13)-c1cc3c(c(=O)n1C2)COC(=O)[C@]3(O)CC [CPT-11, irinotecan hydrochloride]
micronuclei (MN) in the peripheral blood [4]: significantly higher | polychromataphilic erythrocytes (PCE) in the peripheral blood [4]: significantly higher | weight gained during the time of CPT-11 treatment [5]: not significantly different | number of apoptotic cells in 10 duodenum crypts [6]: significantly increased | patients with anemia [8, 10]: 67% | patients with leukopenia [8, 10]: 91% | patients reporting asthenia (tiredness or weakness) ([8]; side effect of CPT-11 treatment): ~90%

Molecule: COc1cccc2c1C(=O)c1c(O)c3c(c(O)c1C2=O)C[C@@](O)(C(=O)CO)C[C@@H]3O[C@H]1C[C@H](N)[C@H](O)[C@H](C)O1 [DOX, doxorubicin]
growth of A549 tumors ([9]; mice consuming corn oil, treated with DOX): halted the growth

Molecule: ferric citrate [iron]
effect of supplemental iron on A549 tumor growth ([9]; mice fed corn oil, supplemental iron and DOX): counteracted the growth inhibitory effect
